Source: PMC11322525, “Dihydrolipoamide dehydrogenase (DLD) is a novel molecular target of bortezomib” (Cell Death & Disease, 2024)

Assays:
[1] = molecular target: T1, DLD (dihydrolipoamide dehydrogenase) (Homo sapiens, UniProt P09622); assay: microscale thermophoresis; type: binding; conditions: unmodified bortezomib; His-tag RED-tris-NTA labelled protein; unit not given
T1 construct: recombinant, customized by DetaiBio; His-tag labelling (RED-tris-NTA) for MST implies His tag
T1 sequence (P09622 36-509): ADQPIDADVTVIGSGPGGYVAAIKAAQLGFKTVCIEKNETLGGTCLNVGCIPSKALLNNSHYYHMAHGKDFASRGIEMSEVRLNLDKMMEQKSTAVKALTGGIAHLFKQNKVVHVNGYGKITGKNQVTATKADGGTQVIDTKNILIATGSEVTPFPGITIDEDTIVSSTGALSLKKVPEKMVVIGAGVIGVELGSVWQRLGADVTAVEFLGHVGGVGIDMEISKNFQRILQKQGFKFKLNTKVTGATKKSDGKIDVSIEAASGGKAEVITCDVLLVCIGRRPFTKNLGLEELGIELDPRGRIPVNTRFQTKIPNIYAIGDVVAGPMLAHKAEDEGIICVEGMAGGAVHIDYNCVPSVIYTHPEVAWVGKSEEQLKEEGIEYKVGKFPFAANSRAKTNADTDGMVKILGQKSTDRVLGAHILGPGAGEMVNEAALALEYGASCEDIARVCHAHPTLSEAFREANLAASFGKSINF

PSMB5 = molecular target: T2, PSMB5 (Homo sapiens, UniProt P28074); assay: microscale thermophoresis; type: binding; conditions: unmodified bortezomib; positive control (protein of the control panel not named in the legend); isolated recombinant subunit
T2 construct: recombinant isolated subunit, customized by DetaiBio; His-tag labelling for MST implies His tag
T2 sequence (P28074 60-263): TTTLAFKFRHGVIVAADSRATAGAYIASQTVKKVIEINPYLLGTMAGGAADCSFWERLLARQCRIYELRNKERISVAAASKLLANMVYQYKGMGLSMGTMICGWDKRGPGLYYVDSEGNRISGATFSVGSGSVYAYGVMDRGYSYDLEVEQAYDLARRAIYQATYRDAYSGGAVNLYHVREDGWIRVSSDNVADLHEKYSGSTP

- KD [1]: 1.38 ± 0.51 E-7
Structure (SMILES): CC(C)C[C@H](NC(=O)[C@H](Cc1ccccc1)NC(=O)c1cnccn1)B(O)O [bortezomib]
- KD (PSMB5): binding affinity of BTZ to DLD and to PSMB5
